Assay results as given in ChEMBL document CHEMBL1201862, “PubChem BioAssay data set” (2004).
The source made the active and inactive calls.

Columns and labels:
[1] = target: T1, Tyrosine-protein phosphatase non-receptor type 7 (Homo sapiens, UniProt P35236); assay type: functional
T1 sequence (P35236 whole entry): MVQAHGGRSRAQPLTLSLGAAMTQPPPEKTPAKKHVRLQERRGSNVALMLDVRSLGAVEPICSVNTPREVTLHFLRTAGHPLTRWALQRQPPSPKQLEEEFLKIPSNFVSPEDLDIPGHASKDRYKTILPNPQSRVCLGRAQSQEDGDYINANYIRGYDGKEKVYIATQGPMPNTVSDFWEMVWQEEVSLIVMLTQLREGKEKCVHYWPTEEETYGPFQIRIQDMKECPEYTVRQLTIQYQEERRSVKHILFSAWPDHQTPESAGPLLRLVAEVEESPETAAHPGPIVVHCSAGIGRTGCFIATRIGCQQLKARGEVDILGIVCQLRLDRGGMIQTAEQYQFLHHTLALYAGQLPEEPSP

[2] = target: T2, Tyrosine-protein phosphatase non-receptor type 22 (Homo sapiens, UniProt Q9Y2R2); assay type: functional
T2 sequence (Q9Y2R2 whole entry): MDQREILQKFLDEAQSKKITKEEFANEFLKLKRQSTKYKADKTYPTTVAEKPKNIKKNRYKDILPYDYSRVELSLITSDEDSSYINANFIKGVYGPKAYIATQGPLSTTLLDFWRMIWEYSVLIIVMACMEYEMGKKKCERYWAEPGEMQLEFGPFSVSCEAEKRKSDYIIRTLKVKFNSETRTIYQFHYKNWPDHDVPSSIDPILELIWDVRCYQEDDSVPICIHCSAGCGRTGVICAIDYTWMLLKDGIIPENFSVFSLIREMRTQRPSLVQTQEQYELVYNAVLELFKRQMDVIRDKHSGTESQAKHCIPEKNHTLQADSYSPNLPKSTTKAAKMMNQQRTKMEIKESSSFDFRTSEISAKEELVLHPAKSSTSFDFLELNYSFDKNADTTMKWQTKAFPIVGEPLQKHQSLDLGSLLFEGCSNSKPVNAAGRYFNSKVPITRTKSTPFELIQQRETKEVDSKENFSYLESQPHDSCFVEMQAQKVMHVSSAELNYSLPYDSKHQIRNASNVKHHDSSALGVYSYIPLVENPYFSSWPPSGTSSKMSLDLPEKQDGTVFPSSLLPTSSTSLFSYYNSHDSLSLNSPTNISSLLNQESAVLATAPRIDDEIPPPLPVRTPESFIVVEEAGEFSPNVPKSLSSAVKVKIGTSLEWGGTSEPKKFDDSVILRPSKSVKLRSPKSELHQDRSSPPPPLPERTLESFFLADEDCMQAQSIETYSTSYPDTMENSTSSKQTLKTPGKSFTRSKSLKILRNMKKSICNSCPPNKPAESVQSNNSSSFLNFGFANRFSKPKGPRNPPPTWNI

[3] = target: T2, Tyrosine-protein phosphatase non-receptor type 22; assay type: functional; remark: listed apart in the source
[4] = target: T3, Rac GTPase-activating protein 1 (Homo sapiens, UniProt Q9H0H5); experiment: blockers of MgcRacGAP-driven Rac1 GTP hydrolysis – biochemical, ADP Hunter fluorescence, primary and confirmatory, confirmation (AID 624330); assay type: functional
T3 sequence (Q9H0H5 whole entry): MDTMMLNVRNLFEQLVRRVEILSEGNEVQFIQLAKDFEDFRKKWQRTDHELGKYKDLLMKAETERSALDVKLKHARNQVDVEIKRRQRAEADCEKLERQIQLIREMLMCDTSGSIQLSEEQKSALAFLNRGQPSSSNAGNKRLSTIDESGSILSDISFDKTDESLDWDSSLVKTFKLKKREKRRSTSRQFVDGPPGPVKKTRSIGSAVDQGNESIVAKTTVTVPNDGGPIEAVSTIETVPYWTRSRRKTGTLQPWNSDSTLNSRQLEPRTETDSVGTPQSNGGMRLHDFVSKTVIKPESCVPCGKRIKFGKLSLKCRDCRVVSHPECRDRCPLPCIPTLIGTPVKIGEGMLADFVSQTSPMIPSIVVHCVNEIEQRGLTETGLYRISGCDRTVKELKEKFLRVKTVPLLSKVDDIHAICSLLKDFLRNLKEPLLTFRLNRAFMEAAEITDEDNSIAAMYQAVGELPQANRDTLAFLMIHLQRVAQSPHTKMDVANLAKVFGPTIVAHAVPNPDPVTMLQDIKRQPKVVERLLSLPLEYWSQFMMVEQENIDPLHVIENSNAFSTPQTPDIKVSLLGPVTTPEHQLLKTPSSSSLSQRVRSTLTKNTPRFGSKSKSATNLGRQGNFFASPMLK

[5] = target: T4, Short transient receptor potential channel 4 (Mus musculus, UniProt Q9QUQ5); experiment: calcium entry via TRPC4 opening agents – cell-based, HEK293 TRPC4/mu-opioid, Fluo-4 calcium, dose response (AID 434937); assay type: functional
T4 sequence (Q9QUQ5 whole entry): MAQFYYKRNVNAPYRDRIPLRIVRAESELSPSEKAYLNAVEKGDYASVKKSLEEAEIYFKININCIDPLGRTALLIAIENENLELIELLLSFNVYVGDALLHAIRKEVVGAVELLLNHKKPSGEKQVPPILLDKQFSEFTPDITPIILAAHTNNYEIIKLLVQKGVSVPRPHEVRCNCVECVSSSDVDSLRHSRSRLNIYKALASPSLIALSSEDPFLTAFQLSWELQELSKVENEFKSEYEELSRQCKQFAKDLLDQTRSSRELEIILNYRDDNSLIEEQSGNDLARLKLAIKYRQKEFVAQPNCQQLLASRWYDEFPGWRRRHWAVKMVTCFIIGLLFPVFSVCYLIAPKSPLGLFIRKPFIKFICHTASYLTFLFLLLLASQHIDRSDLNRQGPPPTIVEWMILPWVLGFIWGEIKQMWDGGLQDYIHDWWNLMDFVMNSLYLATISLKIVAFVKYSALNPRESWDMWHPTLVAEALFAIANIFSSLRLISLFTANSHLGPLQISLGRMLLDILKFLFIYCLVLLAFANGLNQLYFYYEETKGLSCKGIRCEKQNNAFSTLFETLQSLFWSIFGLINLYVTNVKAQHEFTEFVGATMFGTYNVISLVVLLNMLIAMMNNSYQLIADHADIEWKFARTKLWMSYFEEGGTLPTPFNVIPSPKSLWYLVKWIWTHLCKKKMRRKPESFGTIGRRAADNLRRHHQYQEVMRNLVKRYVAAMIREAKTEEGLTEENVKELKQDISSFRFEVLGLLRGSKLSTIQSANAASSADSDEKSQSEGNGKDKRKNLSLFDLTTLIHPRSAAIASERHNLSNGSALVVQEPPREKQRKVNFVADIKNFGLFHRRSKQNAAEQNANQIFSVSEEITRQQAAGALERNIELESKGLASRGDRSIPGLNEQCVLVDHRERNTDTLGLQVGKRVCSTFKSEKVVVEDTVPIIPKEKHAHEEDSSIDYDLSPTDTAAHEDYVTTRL

[6] = target: Delta-type opioid receptor (Homo sapiens, UniProt P41143); experiment: Counterscreen for agonists of heterodimerization of the mu 1 (OPRM1) and delta 1 (OPRD1) opioid receptors: Luminescence-based cell-based high throughput dose response assay to identify agonists of OPRD1 homodimerization. [Related pubchem assays (depositor defined):AID504326, AID504355, AID504692, AID504904, AID504905]; assay type: functional
Mu-type opioid receptor = Mu-type opioid receptor (Homo sapiens, UniProt P35372); experiment: Counterscreen for agonists of heterodimerization of the mu 1 (OPRM1) and delta 1 (OPRD1) opioid receptors: Luminescence-based cell-based high throughput dose response assay to identify agonists of OPRM1 homodimerization.; assay type: functional;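 note: U2OS cells expressing OPRM1 and beta-arrestin as split beta-galactosidase partners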
[7] = target: 5-hydroxytryptamine receptor 5A (Homo sapiens, UniProt P47898); experiment: Counterscreen for agonists of OPRM1-OPRD1 heterodimerization: luminescence-based cell-based high throughput dose response assay to identify agonists of 5-hydroxytryptamine (serotonin) 5A receptor (HTR5A). [Related pubchem assays (depositor defined):AID504326, AID504355, AID504692, AID504904, AID504905]; assay type: functional
HEK293 [8] = experiment: inhibition of NOD1-driven NF-kB reporter – cell-based, luminescence, uHTS, primary screen (AID 1578); assay type: functional; conditions: Homo sapiens
HEK293 [9] = experiment: cells; assay type: functional, cell-based; conditions: Homo sapiens
HEK293 [10] = experiment: cells; assay type: functional, cell-based; conditions: Homo sapiens; remark: listed apart in the source
[11] = target: Nucleotide-binding oligomerization domain-containing protein 2 (Homo sapiens, UniProt Q9HC29); experiment: inhibition of NOD2-driven NF-kB reporter – cell-based, luminescence, uHTS, HEK293 (AID 1566); assay type: functional
HEK293 [12] = experiment: NOD2 signaling inhibitors in MDP-stimulated cells, cell-based, uHTS, luminescence (AID 2001); assay type: functional; conditions: Homo sapiens
HEK293 [13] = experiment: cells; assay type: functional, cell-based; conditions: Homo sapiens; remark: listed apart in the source
Tumor necrosis factor = Tumor necrosis factor (Homo sapiens, UniProt P01375); experiment: analog potency on TNFa NF-kB signaling – cell-based, revised, SAR follow-up (AID 2337); assay type: functional
[14] = target: Nucleotide-binding oligomerization domain-containing protein 1 (Homo sapiens, UniProt Q9Y239); experiment: blockers of NOD1 pathway activity – revised, SAR follow-up (AID 2333); assay type: functional
HEK293 [15] = experiment: cells; conditions: Homo sapiens
Trypsin = Trypsin (Sus scrofa, UniProt P00761); experiment: trypsin protease activity blockade – biochemical, quenched peptide fluorescence, cherry-pick, selectivity assay for Rce1 protease inhibitor project, dose response (AID 488789)
CAAX prenyl protease 2 [16] = target: T5, CAAX prenyl protease 2 (Saccharomyces cerevisiae S288c, UniProt Q03530); assay type: biochemical
T5 sequence (Q03530 whole entry): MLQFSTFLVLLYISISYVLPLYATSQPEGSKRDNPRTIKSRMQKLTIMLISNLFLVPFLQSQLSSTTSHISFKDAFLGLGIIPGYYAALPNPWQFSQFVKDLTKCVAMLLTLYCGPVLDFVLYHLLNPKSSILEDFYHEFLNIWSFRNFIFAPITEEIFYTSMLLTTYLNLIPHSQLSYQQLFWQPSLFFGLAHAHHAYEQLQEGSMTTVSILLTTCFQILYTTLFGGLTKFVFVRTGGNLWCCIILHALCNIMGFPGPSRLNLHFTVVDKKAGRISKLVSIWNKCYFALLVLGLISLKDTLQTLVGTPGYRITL

CAAX prenyl protease 2 [17] = target: CAAX prenyl protease 2 (Homo sapiens, UniProt Q9Y256); experiment: inhibition of Ras-converting CAAX protease Rce1 – biochemical, yeast membranes, quenched-peptide fluorescence, cherry-pick, dose response (AID 588849)
[18] = decrease of insulin promoter-GFP reporter – imaging, high-content screening, mouse beta cells (AID 1628); assay type: functional; conditions: MIN6
[19] = MIN6 cell viability loss – mouse insulinoma, cytotoxicity control, dose response (AID 2122); assay type: functional;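 note: confirmatory high-throughput counterscreen run to flag cytotoxic compounds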
[20] = reduction of Shn3 3'UTR-driven luciferase in osteoblasts – cell-based, Clone20 osteoblasts, firefly luciferase, cherry-picked, dose response (AID 624132); assay type: functional;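 note: firefly luciferase luminescence from reporter carrying the Shn3 3'UTR in osteoblasts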
[21] = loss of viability in HepG2 cells – cell-based, CellTiter-Glo, cherry-picked, cytotoxicity control for Shn3 inhibitor project, dose response (AID 624134); assay type: functional
[22] = non-specific 3'UTR reporter inhibition in Clone20-Shn3RL – cell-based, Renilla luciferase, cherry-picked, counter-screen for Shn3 inhibitor project, dose response (AID 624133); assay type: functional

Chain of Nucleotide-binding oligomerization domain-containing protein 1 (Q9Y239 whole entry, the tested form may be a part): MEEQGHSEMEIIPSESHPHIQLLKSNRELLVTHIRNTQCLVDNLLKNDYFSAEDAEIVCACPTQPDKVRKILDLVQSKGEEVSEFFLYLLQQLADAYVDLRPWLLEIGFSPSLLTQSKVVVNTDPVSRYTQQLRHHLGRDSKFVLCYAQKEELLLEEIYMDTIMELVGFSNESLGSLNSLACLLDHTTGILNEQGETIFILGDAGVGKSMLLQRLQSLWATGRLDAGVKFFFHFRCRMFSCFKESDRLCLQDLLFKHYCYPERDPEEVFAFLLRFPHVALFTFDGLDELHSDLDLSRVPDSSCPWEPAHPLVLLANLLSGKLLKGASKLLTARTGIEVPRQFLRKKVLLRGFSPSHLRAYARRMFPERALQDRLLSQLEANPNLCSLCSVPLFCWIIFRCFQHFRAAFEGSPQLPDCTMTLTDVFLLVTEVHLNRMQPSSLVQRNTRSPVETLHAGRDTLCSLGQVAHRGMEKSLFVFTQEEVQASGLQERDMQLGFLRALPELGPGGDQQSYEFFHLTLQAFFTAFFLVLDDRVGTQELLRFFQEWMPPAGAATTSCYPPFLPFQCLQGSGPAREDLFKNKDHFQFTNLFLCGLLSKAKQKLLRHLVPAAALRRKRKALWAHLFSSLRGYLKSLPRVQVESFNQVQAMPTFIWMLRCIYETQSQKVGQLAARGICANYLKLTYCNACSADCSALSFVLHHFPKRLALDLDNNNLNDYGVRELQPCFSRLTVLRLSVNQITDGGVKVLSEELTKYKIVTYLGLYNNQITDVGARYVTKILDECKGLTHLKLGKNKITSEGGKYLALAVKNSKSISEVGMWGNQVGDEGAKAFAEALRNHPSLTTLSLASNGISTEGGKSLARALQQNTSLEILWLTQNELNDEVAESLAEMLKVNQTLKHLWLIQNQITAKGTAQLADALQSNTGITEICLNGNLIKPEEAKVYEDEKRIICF
Chain of Mu-type opioid receptor (P35372 whole entry): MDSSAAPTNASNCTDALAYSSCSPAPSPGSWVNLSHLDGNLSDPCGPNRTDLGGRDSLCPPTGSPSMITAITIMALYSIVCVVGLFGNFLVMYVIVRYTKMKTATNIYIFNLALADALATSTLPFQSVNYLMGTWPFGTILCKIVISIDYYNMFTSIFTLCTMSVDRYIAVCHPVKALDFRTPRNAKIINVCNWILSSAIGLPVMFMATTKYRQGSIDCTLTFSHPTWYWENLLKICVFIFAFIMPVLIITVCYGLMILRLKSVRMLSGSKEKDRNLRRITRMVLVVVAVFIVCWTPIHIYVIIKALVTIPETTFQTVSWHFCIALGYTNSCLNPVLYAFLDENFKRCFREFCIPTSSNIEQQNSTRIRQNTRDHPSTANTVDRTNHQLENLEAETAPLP
Chain of 5-hydroxytryptamine receptor 5A (P47898 whole entry): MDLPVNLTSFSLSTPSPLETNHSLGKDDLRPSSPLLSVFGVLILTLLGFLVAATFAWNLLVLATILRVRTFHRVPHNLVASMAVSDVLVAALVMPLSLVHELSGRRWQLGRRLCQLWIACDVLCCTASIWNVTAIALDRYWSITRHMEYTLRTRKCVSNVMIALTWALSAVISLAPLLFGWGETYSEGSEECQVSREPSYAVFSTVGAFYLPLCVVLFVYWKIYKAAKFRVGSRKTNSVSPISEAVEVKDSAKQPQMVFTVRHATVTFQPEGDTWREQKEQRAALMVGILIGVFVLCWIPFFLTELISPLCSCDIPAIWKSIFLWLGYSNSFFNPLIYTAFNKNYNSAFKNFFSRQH
Chain of Delta-type opioid receptor (P41143 whole entry): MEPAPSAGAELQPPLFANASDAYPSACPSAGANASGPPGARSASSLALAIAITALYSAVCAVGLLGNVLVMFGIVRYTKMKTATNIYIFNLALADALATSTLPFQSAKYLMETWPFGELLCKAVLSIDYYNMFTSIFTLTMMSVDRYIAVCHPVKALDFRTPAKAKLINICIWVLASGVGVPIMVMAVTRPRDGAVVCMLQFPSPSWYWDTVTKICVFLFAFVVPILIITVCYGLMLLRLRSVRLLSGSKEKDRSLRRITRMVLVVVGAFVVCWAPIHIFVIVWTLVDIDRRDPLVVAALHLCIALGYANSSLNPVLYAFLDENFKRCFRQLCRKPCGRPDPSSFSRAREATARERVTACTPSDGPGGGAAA
Chain of Tumor necrosis factor (P01375 whole entry, the tested form may be a part): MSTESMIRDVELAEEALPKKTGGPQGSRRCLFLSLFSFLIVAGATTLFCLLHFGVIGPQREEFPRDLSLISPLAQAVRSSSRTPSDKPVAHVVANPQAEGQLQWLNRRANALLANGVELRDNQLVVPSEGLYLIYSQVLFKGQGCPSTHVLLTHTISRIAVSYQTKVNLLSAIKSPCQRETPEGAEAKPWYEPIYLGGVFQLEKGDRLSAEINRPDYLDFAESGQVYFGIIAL
Chain of Trypsin (P00761 whole entry): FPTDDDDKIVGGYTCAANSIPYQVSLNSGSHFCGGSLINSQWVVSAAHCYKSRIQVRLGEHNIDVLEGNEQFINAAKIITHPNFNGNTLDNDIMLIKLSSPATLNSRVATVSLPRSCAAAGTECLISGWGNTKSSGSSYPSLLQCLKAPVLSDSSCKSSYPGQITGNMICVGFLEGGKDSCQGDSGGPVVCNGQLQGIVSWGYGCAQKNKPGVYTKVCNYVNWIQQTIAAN
Chain of CAAX prenyl protease 2 (Homo sapiens, UniProt Q9Y256) (Q9Y256 whole entry): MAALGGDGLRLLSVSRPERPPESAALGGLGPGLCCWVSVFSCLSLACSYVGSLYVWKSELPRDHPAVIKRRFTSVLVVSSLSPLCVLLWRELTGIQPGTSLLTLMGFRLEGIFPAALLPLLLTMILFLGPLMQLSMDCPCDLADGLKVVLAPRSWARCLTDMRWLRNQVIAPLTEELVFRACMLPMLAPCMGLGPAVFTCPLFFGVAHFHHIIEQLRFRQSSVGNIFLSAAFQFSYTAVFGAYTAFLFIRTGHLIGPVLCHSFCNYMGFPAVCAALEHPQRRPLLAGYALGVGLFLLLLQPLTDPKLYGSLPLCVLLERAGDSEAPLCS
Chain of Nucleotide-binding oligomerization domain-containing protein 2 (Q9HC29 whole entry, the tested form may be a part): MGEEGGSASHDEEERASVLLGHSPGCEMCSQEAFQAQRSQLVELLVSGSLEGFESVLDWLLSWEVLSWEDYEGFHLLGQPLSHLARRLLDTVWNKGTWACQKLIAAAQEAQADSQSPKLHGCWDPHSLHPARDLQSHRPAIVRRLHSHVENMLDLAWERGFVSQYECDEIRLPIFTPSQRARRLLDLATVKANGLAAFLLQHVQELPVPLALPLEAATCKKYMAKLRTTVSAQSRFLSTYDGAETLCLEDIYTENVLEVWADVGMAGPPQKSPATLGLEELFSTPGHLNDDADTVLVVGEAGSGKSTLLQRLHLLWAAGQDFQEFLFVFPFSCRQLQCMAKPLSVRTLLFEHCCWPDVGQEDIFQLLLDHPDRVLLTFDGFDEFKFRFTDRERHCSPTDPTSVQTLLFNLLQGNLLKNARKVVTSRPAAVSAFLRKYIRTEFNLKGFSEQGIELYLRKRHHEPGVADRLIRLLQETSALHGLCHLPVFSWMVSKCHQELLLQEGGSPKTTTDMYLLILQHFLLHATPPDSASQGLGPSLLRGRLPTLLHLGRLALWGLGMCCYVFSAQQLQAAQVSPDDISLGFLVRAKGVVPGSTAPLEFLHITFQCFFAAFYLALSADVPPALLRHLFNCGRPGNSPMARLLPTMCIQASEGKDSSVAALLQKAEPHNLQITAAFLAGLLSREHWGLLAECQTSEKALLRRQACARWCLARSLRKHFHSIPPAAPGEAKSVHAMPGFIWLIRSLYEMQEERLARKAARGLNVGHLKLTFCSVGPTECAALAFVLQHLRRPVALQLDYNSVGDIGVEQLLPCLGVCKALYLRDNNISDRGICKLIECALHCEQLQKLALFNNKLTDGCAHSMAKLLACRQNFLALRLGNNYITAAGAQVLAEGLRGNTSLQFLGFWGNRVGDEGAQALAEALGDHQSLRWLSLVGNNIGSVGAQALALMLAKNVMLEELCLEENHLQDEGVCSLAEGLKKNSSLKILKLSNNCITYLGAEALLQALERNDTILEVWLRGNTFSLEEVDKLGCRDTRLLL

SMILES: Cc1[nH]c2ccccc2c1N=Nc1c(C)n(C)n(-c2ccccc2)c1=O
- IC50 [1]: > 79.4 µM (inactive)
- IC50 [2]: > 79.4 µM (inactive)
- IC50 [3]: > 79.4 µM (inactive)
- IC50 [4]: 41.1 µM (active)

SMILES: Cc1ccc(C)c(NC(S)=NCC(c2ccccc2)N(C)C)c1 (stereo not given)
- EC50 [5]: 0.188 µM (active)
- EC50 [6]: 50 µM (inactive)
- EC50 (Mu-type opioid receptor): 4.15 µM (active)
- EC50 [7]: > 92.5 µM (inactive)

SMILES: Cc1onc(-c2ccccc2)c1C(=O)Nc1ncc([N+](=O)[O-])s1
- EC50 (HEK293 [8]): 2.25 µM (active)
- IC50 (HEK293 [9]): 15.8 µM (active)
- IC50 (HEK293 [10]): > 20 µM (inactive)
- EC50 [11]: 2.62 µM (active)
- IC50 (HEK293 [12]): 8.73 µM (active)
- IC50 (HEK293 [13]): > 20 µM (inactive)
- IC50 (Tumor necrosis factor): 6.31 µM (active)
- IC50 [14]: 4.88 µM (active)
- IC50 (HEK293 [15]): 18 µM (active)

SMILES: CN1c2ccccc2-c2nc3ccccc3n2C1c1cccs1 (stereo not given)
- AC50 (Trypsin): 0.989 µM (active)
- AC50 (CAAX prenyl protease 2 [16]): 4.28 µM (active)
- AC50 (CAAX prenyl protease 2 [17]): 0.769 µM (active)

SMILES: Cc1cc2nc(C)n(CCCNC(=O)Nc3cccc4ccccc34)c2cc1C
- IC50 [18]: 1.7 µM (active)
- IC50 [19]: 1.99 µM (active)
- AC50 [20]: 3.19 µM (active)
- AC50 [21]: 28.5 µM (active)
- AC50 [22]: 6.38 µM (active)
